Laboratory results: patent publication US9932314B2, “Pyrazole compounds and their use as T-type calcium channel blockers” (IDORSIA PHARMACEUTICALS LTD, priority 2015, dated 2018)

Molecular target: T1, voltage-dependent T-type calcium channel subunit alpha-1G (Cav3.2) (Homo sapiens, UniProt O95180)
T1 construct: expressed in transfected cells; host or cells: HEK293
Experiment: FLIPR calcium flux assay, HEK293 cells recombinantly expressing Cav3.2
Type: cell-based
Details: Cav3.2-channel, Fluo-4-AM, 3 min incubation, stimulation with 10 mM CaCl2
Protocol: In Vitro Methods—Measurement of Calcium Channel Flux by Means of FLIPR Assays.
HEK293 cells recombinantly expressing either voltage-dependent T-type calcium channel subunit […] (Cav3.2) or voltage-dependent L-type calcium channel subunit alpha-1C (Cav1.2) are assayed for calcium flux using the calcium indicator dye Fluo-4-AM (Molecular Devices) and FLIPR technology (Fluorometric Imaging Plate Reader, Molecular Devices) (Xie X, Van Deusen A L, Vitko I, Babu D A, Davies L A, Huynh N, Cheng H, Yang N, Barrett P Q, Perez-Reyes E. Validation of high throughput screening assays against three subtypes of Ca(v)3 T-type channels using molecular and pharmacologic approaches. Assay and Drug Development Technologies 2007, 5(2), 191-203). The HEK293 cells recombinantly expressing Cav3.2 are maintained in DMEM growth medium (Life Technologies) supplemented with 10% Fetal Bovine Serum (FBS), 100 U/ml penicilin (Life Technologies), 100 μg/ml streptomycin (Life Technologies) and 1 mg/ml G418 (Life Technologies). HEK293 cells recombinantly expressing Cav1.2 are maintained in DMEM growth medium (Life technologies) supplemented with 10% FBS, 0.1 mg/ml G418 (Life Technologies), 0.1 mg/ml hygromycin (Life Technologies) and 40 ug/ml zeocin (Life Technologies).
The seeded plates are incubated overnight at 37° C.
The cells are then washed three times with assay buffer (HBSS 1×; 0.375 g/L NaHCO3; 20 mM Hepes; 1% FBS; pH 7.4) and allowed to rest in 50 μl of wash buffer for 30 minutes.
Stock solutions of test compounds are prepared to a concentration of 10 mM in DMSO. For the Cav3.2 assay, serial dilutions of the compounds are prepared in TEAC buffer (100 mM tetraethylammonium chloride; 20 mM Hepes; 2.5 mM CaCl2; 5 mM KCl; 1 mM MgCl2; 1% FBS; pH 7.2), for the Cav1.2 assay serial dilutions are prepared in assay buffer. […] The compounds are incubated with the cells for 3 minutes and Ca2+ entry is stimulated by adding either CaCl2 to a final concentration of 10 mM (Cav3.2 assay) or by adding KCl to a final concentration of 20 mM (Cav1.2 assay). The kinetics of fluorescence increase are recorded for every well and the area under the fluorescence trace for every compound concentration is used to generate inhibition curves using non-linear regression sigmoidal concentration-response curve analysis with in-house software.

T1 sequence (O95180 whole entry): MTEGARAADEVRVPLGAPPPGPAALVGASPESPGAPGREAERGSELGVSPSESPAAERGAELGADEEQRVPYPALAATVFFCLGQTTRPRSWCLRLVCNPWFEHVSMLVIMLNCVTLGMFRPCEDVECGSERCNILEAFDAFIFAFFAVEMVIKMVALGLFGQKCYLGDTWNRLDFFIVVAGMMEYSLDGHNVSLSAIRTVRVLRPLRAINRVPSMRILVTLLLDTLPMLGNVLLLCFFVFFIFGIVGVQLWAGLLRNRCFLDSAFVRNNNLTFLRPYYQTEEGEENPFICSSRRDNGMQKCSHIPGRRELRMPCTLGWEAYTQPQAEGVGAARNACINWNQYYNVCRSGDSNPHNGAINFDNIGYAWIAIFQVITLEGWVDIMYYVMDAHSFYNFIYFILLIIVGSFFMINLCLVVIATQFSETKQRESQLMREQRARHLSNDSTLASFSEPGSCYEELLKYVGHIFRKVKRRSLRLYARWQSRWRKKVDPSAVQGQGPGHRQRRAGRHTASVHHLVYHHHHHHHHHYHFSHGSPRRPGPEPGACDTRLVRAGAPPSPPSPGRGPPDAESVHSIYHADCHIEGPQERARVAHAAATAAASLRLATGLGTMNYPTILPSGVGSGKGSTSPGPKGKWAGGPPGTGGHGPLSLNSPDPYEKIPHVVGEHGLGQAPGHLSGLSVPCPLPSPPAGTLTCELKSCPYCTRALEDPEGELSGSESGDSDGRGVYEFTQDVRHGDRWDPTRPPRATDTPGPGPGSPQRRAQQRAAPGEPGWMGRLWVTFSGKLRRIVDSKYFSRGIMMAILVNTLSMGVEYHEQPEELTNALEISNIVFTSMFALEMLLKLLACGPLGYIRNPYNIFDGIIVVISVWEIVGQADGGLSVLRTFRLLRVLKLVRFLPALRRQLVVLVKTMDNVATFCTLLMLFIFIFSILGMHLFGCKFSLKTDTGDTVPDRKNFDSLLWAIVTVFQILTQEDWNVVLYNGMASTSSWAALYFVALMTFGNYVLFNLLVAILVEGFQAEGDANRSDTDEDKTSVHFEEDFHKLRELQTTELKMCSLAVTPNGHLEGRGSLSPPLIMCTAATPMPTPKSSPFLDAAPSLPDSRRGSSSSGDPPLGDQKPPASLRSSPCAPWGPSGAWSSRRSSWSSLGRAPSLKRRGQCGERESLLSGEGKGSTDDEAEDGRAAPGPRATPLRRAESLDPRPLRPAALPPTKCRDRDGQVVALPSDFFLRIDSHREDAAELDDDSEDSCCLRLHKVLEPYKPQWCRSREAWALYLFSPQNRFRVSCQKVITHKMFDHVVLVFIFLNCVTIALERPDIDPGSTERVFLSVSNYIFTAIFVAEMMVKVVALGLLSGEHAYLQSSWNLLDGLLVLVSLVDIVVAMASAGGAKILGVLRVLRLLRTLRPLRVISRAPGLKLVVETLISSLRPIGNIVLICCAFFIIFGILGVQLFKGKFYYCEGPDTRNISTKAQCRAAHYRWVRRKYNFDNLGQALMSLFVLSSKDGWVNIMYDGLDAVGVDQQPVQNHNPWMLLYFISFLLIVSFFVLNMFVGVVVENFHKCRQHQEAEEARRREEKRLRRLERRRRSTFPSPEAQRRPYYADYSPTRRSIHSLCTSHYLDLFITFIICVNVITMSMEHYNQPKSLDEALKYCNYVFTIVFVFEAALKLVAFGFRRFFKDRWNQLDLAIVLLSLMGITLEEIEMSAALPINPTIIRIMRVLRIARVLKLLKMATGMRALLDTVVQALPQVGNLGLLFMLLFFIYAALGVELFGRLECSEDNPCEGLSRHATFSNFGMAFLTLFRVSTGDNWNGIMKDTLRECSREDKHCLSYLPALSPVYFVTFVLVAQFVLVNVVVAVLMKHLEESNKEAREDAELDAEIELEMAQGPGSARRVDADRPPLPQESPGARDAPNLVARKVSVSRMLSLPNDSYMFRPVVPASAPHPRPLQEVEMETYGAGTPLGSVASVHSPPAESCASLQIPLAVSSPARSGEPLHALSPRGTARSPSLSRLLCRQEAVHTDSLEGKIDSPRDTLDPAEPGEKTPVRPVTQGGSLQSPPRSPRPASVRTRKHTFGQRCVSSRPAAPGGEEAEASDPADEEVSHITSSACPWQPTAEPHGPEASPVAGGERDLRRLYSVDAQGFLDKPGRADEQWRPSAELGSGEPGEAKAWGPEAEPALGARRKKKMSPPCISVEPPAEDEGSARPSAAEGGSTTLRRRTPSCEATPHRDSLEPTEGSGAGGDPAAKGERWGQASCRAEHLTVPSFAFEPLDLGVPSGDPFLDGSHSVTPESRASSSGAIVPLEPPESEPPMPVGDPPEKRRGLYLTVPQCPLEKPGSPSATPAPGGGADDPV

| IC50 [nM] | SMILES |
| --- | --- |
| 90 | N#Cc1cc(Cn2ccc(NC(=O)Cc3ccc(OCC4(F)COC4)cc3)n2)ccc1F [Example 267, N-[1-(3-Cyano-4-fluoro-benzyl)-1H-pyrazol-3-yl]-2-[4-(3-fluoro-oxetan-3-ylmethoxy)-phenyl]-acetamide] |
| 7.5 | N#Cc1ccc(Cn2ccc(NC(=O)Cc3ccc(C4CC(F)(F)C4)cc3)n2)cc1 [Example 300, N-[1-(4-Cyano-benzyl)-1H-pyrazol-3-yl]-2-[4-(3,3-difluoro-cyclobutyl)-phenyl]-acetamide] |
| 47 | CC(C)c1ccc(CC(=O)Nc2ccn(Cc3ccc(OC4CC4)cc3)n2)cc1 [Example 195, N-[1-(4-Cyclopropoxy-benzyl)-1H-pyrazol-3-yl]-2-(4-isopropyl-phenyl)-acetamide] |
| 285 | CN(C)c1ccc(CC(=O)Nc2ccn(Cc3ccc(C#N)c(F)c3)n2)cn1 [Example 58, N-[1-(4-Cyano-3-fluoro-benzyl)-1H-pyrazol-3-yl]-2-(6-dimethylamino-pyridin-3-yl)-acetamide] |
| 38 | Cc1ccc(Cn2ccc(NC(=O)Cc3ccc(C4(C(F)(F)F)CC4)cc3)n2)nc1C#N [Example 372, N-[1-(6-Cyano-5-methyl-pyridin-2-ylmethyl)-1H-pyrazol-3-yl]-2-[4-(1-trifluoromethyl-cyclopropyl)-phenyl]-acetamide] |
| 133 | Cc1ccc(Cn2ccc(NC(=O)Cc3ccc(N(C)C)nc3)n2)cc1 [Example 13, 2-(6-Dimethylamino-pyridin-3-yl)-N-[1-(4-methyl-benzyl)-1H-pyrazol-3-yl]-acetamide] |
| 64 | Cc1ccc(Cn2ccc(NC(=O)Cc3ccc4c(c3)c(C)cn4C)n2)nc1C#N [Example 369, N-[1-(6-Cyano-5-methyl-pyridin-2-ylmethyl)-1H-pyrazol-3-yl]-2-(1,3-dimethyl-1H-indol-5-yl)-acetamide] |
| 22 | N#Cc1ccc(Cn2ccc(NC(=O)Cc3ccc(N4CCC(F)(F)C4)nc3)n2)cc1F [Example 294, N-[1-(4-Cyano-3-fluoro-benzyl)-1H-pyrazol-3-yl]-2-[6-(3,3-difluoro-pyrrolidin-1-yl)-pyridin-3-yl]-acetamide] |
| 67 | N#Cc1ccc(Cn2ccc(NC(=O)Cc3ccc(N4CCCC4)nc3)n2)cc1 [Example 176, N-[1-(4-Cyano-benzyl)-1H-pyrazol-3-yl]-2-(6-pyrrolidin-1-yl-pyridin-3-yl)-acetamide] |
| 168 | CC(C)(C#N)c1ccc(CC(=O)Nc2ccn(Cc3ccc(C#N)cn3)n2)cc1 [Example 337, 2-[4-(Cyano-dimethyl-methyl)-phenyl]-N-[1-(5-cyano-pyridin-2-ylmethyl)-1H-pyrazol-3-yl]-acetamide] |
| 81 | CC1(COc2ccc(CC(=O)Nc3ccn(Cc4ccc(F)c(C#N)c4)n3)cc2)CC(F)(F)C1 [Example 311, N-[1-(3-Cyano-4-fluoro-benzyl)-1H-pyrazol-3-yl]-2-[4-(3,3-difluoro-1-methyl-cyclobutylmethoxy)-phenyl]-acetamide] |
| 56 | CC1(c2ccc(CC(=O)Nc3ccn(Cc4ccc(C#N)cc4)n3)cc2)COC1 [Example 317, N-[1-(4-Cyano-benzyl)-1H-pyrazol-3-yl]-2-[4-(3-methyl-oxetan-3-yl)-phenyl]-acetamide] |
| 212 | COC1(c2ccc(CC(=O)Nc3ccn(Cc4cc(F)c(C#N)c(F)c4)n3)cc2)COC1 [Example 359, N-[1-(4-Cyano-3,5-difluoro-benzyl)-1H-pyrazol-3-yl]-2-[4-(3-methoxy-oxetan-3-yl)-phenyl]-acetamide] |
| 64 | O=C(Cc1ccc(N2CC(F)C2)nc1)Nc1ccn(Cc2ccc(F)cc2)n1 [Example 162, 2-[6-(3-Fluoro-azetidin-1-yl)-pyridin-3-yl]-N-[1-(4-fluoro-benzyl)-1H-pyrazol-3-yl]-acetamide] |
| 14 | N#CC1(c2ccc(CC(=O)Nc3ccn(Cc4ccc(F)c(F)c4)n3)cc2C(F)(F)F)CC1 [Example 404, 2-[4-(1-Cyano-cyclopropyl)-3-trifluoromethyl-phenyl]-N-[1-(3,4-difluoro-benzyl)-1H-pyrazol-3-yl]-acetamide] |
| 44 | O=C(Cc1ccc(N2CC(F)(F)C2)nc1)Nc1ccn(Cc2ccc(F)cc2)n1 [Example 145, 2-[6-(3,3-Difluoro-azetidin-1-yl)-pyridin-3-yl]-N-[1-(4-fluoro-benzyl)-1H-pyrazol-3-yl]-acetamide] |
| 15 | CN(CC1CC1)c1ccc(CC(=O)Nc2ccn(Cc3ccc(F)cc3)n2)cn1 [Example 187, 2-[6-(Cyclopropylmethyl-methyl-amino)-pyridin-3-yl]-N-[1-(4-fluoro-benzyl)-1H-pyrazol-3-yl]-acetamide] |
| 4.1 | Cc1cn(C)c2cc(CC(=O)Nc3ccn(Cc4ccc(F)c(F)c4)n3)ccc12 [Example 259, N-[1-(3,4-Difluoro-benzyl)-1H-pyrazol-3-yl]-2-(1,3-dimethyl-1H-indol-6-yl)-acetamide] |
| 33 | Cn1cc(C(F)(F)F)c2cc(CC(=O)Nc3ccn(Cc4ccc(C#N)cn4)n3)ccc21 [Example 326, N-[1-(5-Cyano-pyridin-2-ylmethyl)-1H-pyrazol-3-yl]-2-(1-methyl-3-trifluoromethyl-1H-indol-5-yl)-acetamide] |
| 26 | O=C(Cc1ccc(-c2cccnc2)cc1)Nc1ccn(Cc2ccc(F)cc2)n1 [Example 83, N-[1-(4-Fluoro-benzyl)-1H-pyrazol-3-yl]-2-(4-pyridin-3-yl-phenyl)-acetamide] |
| 40 | N#Cc1cc(Cn2ccc(NC(=O)Cc3ccc(C(F)(F)F)cc3)n2)ccc1F [Example 342, N-[1-(3-Cyano-4-fluoro-benzyl)-1H-pyrazol-3-yl]-2-(4-trifluoromethyl-phenyl)-acetamide] |
| 19 | O=C(Cc1ccc(N2CCC(F)(F)C2)nc1)Nc1ccn(Cc2ccc(F)cc2)n1 [Example 122, 2-[6-(3,3-Difluoro-pyrrolidin-1-yl)-pyridin-3-yl]-N-[1-(4-fluoro-benzyl)-1H-pyrazol-3-yl]-acetamide] |
| 490 | CN(CC1CC1)c1ccc(CC(=O)Nc2ccn(Cc3ccc(C#N)cn3)n2)cn1 [Example 184, N-[1-(5-Cyano-pyridin-2-ylmethyl)-1H-pyrazol-3-yl]-2-[6-(cyclopropylmethyl-methyl-amino)-pyridin-3-yl]-acetamide] |
| 30 | CCc1cc(CC(=O)Nc2ccn(Cc3cc(C#N)c(F)cn3)n2)ccc1OCC(F)(F)F [Example 413, N-[1-(4-Cyano-5-fluoro-pyridin-2-ylmethyl)-1H-pyrazol-3-yl]-2-[3-ethyl-4-(2,2,2-trifluoro-ethoxy)-phenyl]-acetamide] |
| 313 | Cc1nc2ccc(CC(=O)Nc3ccn(Cc4ccc(F)cc4)n3)cc2[nH]1 [Example 137, N-[1-(4-Fluoro-benzyl)-1H-pyrazol-3-yl]-2-(2-methyl-3H-benzoimidazol-5-yl)-acetamide] |
| 3.1 | Cc1cn(C)c2ccc(CC(=O)Nc3ccn(Cc4ccc(F)c(F)c4)n3)cc12 [Example 260, N-[1-(3,4-Difluoro-benzyl)-1H-pyrazol-3-yl]-2-(1,3-dimethyl-1H-indol-5-yl)-acetamide] |
| 4.5 | Cc1cc(CC(=O)Nc2ccn(Cc3ccc(F)c(C#N)c3)n2)ccc1OCC(F)(F)F [Example 343, N-[1-(3-Cyano-4-fluoro-benzyl)-1H-pyrazol-3-yl]-2-[3-methyl-4-(2,2,2-trifluoro-ethoxy)-phenyl]-acetamide] |
| 188 | CCN(C)c1ccc(CC(=O)Nc2ccn(Cc3ccc(C#N)cc3)n2)cn1 [Example 173, N-[1-(4-Cyano-benzyl)-1H-pyrazol-3-yl]-2-[6-(ethyl-methyl-amino)-pyridin-3-yl]-acetamide] |
| 104 | Cc1cc(Cn2ccc(NC(=O)Cc3ccc(C(C)C)cc3)n2)ncc1C#N [Example 169, N-[1-(5-Cyano-4-methyl-pyridin-2-ylmethyl)-1H-pyrazol-3-yl]-2-(4-isopropyl-phenyl)-acetamide] |

| SMILES | IC50 [nM] |
| --- | --- |
| Cc1ccc(Cn2ccc(NC(=O)Cc3ccc(OC4CC(F)(F)C4)cc3)n2)nc1C#N [Example 374, N-[1-(6-Cyano-5-methyl-pyridin-2-ylmethyl)-1H-pyrazol-3-yl]-2-[4-(3,3-difluoro-cyclobutoxy)-phenyl]-acetamide] | 107 |
| N#Cc1ccc(Cn2ccc(NC(=O)Cc3ccc(OC4CCC4)cc3)n2)nc1 [Example 196, N-[1-(5-Cyano-pyridin-2-ylmethyl)-1H-pyrazol-3-yl]-2-(4-cyclobutoxy-phenyl)-acetamide] | 176 |
